Experimental data from patent publication US9790210B2, “N-(monocyclic aryl),N'-pyrazolyl-urea, thiourea, guanidine and cyanoguanidine compounds as TrkA kinase inhibitors” (Array BioPharma Inc., priority 2012, dated 2017).

Experiments:
Test in all cases: KinaseProfiler
Type in all cases: biochemical
Conditions in all cases: 10 μM, ATP near Km
[1] = target: T1, IRAK1 (Homo sapiens, UniProt P51617)
T1 construct: purchased Millipore, Inc. (KinaseProfiler service)
Description: (§1) A representative compound (Example 15) of the invention was tested for off-target kinase activity at a concentration of 10 μM by Millipore, Inc. in their KinaseProfiler™ service against all the kinases available in their full kinase panel. The compound was run in duplicate at a concentration of ATP near the Km for each individual kinase according to Millipore's specifications. The results are shown in Table B. Data are reported as percent of control (POC) and are the average of the two replicates.

[2] = target: T2, TAO3 (Homo sapiens, UniProt Q9H2K8)
T2 construct: purchased Millipore, Inc. (KinaseProfiler service)
Description: as §1

[3] = target: T3, ErbB4 (Homo sapiens, UniProt Q15303)
T3 construct: purchased Millipore, Inc. (KinaseProfiler service)
Description: as §1

[4] = target: T4, ALK4 (Homo sapiens, UniProt P36896)
T4 construct: purchased Millipore (KinaseProfiler service)
Description: as §1

[5] = target: T5, EphB3 (Homo sapiens, UniProt P54753)
T5 construct: purchased Millipore, Inc. (KinaseProfiler service)
Description: as §1

[6] = target: T6, MAP4K2 (Homo sapiens, UniProt Q12851)
T6 construct: purchased Millipore, Inc. (KinaseProfiler service)
T6 sequence (Q12851 whole entry): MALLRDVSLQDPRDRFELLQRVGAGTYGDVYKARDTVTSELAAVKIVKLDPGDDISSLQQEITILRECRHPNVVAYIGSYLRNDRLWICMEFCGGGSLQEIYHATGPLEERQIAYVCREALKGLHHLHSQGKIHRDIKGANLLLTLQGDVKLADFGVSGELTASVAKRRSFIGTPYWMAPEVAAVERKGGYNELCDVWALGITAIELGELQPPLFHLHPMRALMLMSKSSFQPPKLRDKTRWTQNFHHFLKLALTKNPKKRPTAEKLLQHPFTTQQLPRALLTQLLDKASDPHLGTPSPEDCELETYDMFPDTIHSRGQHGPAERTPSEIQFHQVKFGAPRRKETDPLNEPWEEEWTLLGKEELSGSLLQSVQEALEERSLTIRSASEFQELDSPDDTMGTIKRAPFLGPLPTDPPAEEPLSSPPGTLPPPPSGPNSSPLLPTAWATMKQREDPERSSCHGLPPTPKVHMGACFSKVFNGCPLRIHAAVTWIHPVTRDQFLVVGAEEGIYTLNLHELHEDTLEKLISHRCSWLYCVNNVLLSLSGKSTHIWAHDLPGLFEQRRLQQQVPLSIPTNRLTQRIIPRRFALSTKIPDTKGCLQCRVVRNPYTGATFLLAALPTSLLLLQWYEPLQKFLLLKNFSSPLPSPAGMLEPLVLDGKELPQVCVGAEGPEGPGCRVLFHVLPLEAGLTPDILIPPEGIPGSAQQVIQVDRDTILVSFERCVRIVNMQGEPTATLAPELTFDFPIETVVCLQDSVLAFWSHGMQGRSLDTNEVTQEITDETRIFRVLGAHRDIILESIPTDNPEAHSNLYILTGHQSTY
Description: as §1

[7] = target: T7, Flt4 (Homo sapiens, UniProt P35916)
T7 construct: purchased Millipore, Inc. (KinaseProfiler service)
Description: as §1

[8] = target: T8, FGFR4 (Homo sapiens, UniProt P22455)
T8 construct: purchased Millipore, Inc. (KinaseProfiler service)
T8 sequence (P22455 22-802): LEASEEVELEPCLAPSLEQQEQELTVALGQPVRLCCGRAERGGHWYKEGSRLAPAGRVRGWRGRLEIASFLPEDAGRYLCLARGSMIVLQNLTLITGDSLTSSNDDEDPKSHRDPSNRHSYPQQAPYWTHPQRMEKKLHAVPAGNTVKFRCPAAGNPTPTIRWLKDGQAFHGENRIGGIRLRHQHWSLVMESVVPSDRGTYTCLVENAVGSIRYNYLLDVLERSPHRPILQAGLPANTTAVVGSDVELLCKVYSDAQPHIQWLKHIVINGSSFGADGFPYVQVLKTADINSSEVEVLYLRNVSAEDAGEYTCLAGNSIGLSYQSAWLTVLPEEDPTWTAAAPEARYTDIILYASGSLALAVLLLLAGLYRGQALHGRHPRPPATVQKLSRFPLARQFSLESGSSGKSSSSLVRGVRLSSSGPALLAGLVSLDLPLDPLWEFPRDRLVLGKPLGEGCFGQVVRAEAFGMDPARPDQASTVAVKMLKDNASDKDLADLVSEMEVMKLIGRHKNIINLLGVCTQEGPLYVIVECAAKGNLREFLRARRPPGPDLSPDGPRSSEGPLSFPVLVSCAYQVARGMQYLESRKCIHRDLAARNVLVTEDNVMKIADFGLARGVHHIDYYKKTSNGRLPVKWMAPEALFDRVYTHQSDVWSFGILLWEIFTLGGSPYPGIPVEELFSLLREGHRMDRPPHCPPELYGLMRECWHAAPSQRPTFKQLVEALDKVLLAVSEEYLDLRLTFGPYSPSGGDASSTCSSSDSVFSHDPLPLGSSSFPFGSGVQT
Description: as §1

[9] = target: T9, MARK2 (Homo sapiens, UniProt Q7KZI7)
T9 construct: purchased Millipore, Inc. (KinaseProfiler service)
Description: as §1

[10] = target: T10, FGFR1 (Homo sapiens, UniProt P11362)
T10 construct: purchased Millipore, Inc. (KinaseProfiler service)
Description: as §1

[11] = target: T11, DDR2 (Homo sapiens, UniProt Q16832)
T11 construct: purchased Millipore, Inc. (KinaseProfiler service)
Description: as §1

[12] = target: T12, p38gamma (Homo sapiens, UniProt P53778)
T12 construct: purchased Millipore, Inc. (KinaseProfiler service)
Description: as §1

[13] = target: T13, LKB1 (Homo sapiens, UniProt Q15831)
T13 construct: purchased Millipore, Inc. (KinaseProfiler service)
Description: as §1

[14] = target: T14, Ron (Homo sapiens, UniProt Q04912)
T14 construct: purchased Millipore, Inc. (KinaseProfiler service)
T14 sequence (Q04912 25-1400): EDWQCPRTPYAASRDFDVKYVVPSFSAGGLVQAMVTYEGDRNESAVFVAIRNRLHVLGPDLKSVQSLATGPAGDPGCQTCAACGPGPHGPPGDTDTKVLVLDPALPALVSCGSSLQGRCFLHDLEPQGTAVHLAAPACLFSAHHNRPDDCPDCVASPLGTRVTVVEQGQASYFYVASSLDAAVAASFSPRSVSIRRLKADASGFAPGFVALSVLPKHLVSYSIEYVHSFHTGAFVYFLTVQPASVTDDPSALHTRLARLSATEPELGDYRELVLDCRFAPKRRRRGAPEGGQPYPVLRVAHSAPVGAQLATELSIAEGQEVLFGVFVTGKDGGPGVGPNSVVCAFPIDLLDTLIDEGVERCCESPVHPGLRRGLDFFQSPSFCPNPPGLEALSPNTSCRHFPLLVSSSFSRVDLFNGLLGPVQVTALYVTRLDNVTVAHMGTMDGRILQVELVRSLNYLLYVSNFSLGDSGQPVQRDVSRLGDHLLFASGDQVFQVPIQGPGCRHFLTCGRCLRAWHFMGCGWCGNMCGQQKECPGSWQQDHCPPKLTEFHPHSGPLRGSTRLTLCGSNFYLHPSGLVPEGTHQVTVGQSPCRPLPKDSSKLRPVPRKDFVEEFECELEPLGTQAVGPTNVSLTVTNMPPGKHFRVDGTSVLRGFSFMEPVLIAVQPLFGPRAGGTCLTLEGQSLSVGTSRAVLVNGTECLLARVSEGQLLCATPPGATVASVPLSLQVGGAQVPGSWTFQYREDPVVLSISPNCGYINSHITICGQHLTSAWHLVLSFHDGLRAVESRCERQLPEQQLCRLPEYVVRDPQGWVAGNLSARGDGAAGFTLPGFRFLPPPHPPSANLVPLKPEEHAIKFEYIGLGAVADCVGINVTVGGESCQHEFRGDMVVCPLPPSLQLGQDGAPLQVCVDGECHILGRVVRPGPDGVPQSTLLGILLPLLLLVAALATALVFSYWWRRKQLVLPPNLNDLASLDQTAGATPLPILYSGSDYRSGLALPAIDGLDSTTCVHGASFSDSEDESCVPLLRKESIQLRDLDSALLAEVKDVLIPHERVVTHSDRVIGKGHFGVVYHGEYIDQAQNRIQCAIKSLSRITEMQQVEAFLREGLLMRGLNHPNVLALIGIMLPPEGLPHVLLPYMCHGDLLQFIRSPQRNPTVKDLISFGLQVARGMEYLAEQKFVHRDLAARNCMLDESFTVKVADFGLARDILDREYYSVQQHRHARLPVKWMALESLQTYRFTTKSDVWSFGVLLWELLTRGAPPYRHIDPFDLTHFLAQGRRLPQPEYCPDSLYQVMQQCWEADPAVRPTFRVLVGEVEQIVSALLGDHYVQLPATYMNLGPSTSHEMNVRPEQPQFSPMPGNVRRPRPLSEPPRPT
Description: as §1

[15] = target: T15, AKT2 (Homo sapiens, UniProt P31751)
T15 construct: purchased Millipore (KinaseProfiler service)
Description: as §1

[16] = target: T16, CK2alpha2 (Homo sapiens, UniProt P19784)
T16 construct: purchased Millipore, Inc. (KinaseProfiler service)
Description: as §1

[17] = target: T17, Yes (Homo sapiens, UniProt P07947)
T17 construct: purchased Millipore, Inc. (KinaseProfiler service)
Description: as §1

[18] = target: T18, PKD2 (Homo sapiens, UniProt Q9BZL6)
T18 construct: purchased Millipore, Inc. (KinaseProfiler service)
Description: as §1

[19] = target: T19, CAMK4 (Homo sapiens, UniProt Q16566)
T19 construct: purchased Millipore (KinaseProfiler service)
Description: as §1

[20] = target: T20, DAPK1 (Homo sapiens, UniProt P53355)
T20 construct: purchased Millipore, Inc. (KinaseProfiler service)
Description: as §1

[21] = target: T21, PDGFRbeta (Homo sapiens, UniProt P09619)
T21 construct: purchased Millipore, Inc. (KinaseProfiler service)
Description: as §1

[22] = target: T22, ZAP-70 (Homo sapiens, UniProt P43403)
T22 construct: purchased Millipore, Inc. (KinaseProfiler service)
T22 sequence (P43403 whole entry): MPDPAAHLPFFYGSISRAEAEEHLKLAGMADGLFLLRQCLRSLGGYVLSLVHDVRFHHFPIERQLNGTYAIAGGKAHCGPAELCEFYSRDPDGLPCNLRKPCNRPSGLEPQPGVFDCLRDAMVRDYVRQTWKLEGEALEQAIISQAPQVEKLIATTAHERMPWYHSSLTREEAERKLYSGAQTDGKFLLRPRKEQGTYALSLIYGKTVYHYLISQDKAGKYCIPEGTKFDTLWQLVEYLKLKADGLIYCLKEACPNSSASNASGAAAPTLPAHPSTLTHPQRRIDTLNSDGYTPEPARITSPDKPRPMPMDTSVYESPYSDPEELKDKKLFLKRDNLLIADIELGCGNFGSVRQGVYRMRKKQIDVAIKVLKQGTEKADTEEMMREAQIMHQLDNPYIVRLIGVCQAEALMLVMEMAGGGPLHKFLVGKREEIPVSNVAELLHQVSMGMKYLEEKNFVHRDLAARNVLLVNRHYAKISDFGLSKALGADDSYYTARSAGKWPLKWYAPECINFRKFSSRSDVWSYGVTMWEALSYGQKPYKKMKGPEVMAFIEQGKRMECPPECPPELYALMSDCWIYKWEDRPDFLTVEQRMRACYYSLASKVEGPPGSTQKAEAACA
Description: as §1

[23] = target: T23, IKKalpha (Homo sapiens, UniProt O15111)
T23 construct: purchased Millipore, Inc. (KinaseProfiler service)
Description: as §1

[24] = target: T24, IR Activated (Homo sapiens, UniProt P06213)
T24 construct: purchased Millipore, Inc. (KinaseProfiler service)
Description: as §1

[25] = target: T25, PAK2 (Homo sapiens, UniProt Q13177)
T25 construct: purchased Millipore, Inc. (KinaseProfiler service)
Description: as §1

[26] = target: T26, Fes (Homo sapiens, UniProt P07332)
T26 construct: purchased Millipore, Inc. (KinaseProfiler service)
Description: as §1

[27] = target: T27, NLK (Homo sapiens, UniProt Q9UBE8)
T27 construct: purchased Millipore, Inc. (KinaseProfiler service)
Description: as §1

[28] = target: T28, EphB2 (Homo sapiens, UniProt P29323)
T28 construct: purchased Millipore, Inc. (KinaseProfiler service)
Description: as §1

[29] = target: T29, FGFR2 (Homo sapiens, UniProt P21802)
T29 construct: purchased Millipore, Inc. (KinaseProfiler service)
Description: as §1

[30] = target: T30, DYRK2 (Homo sapiens, UniProt Q92630)
T30 construct: purchased Millipore, Inc. (KinaseProfiler service)
Description: as §1

[31] = target: T31, Fms (Homo sapiens, UniProt P07333)
T31 construct: purchased Millipore, Inc. (KinaseProfiler service)
Description: as §1

[32] = target: T32, mTOR (Homo sapiens, UniProt P42345)
T32 construct: purchased Millipore, Inc. (KinaseProfiler service)
Description: as §1

[33] = target: T33, ULK2 (Homo sapiens, UniProt Q8IYT8)
T33 construct: purchased Millipore, Inc. (KinaseProfiler service)
Description: as §1

[34] = target: T34, SGK3 (Homo sapiens, UniProt Q96BR1)
T34 construct: purchased Millipore, Inc. (KinaseProfiler service)
Description: as §1

[35] = target: T35, TBK1 (Homo sapiens, UniProt Q9UHD2)
T35 construct: purchased Millipore, Inc. (KinaseProfiler service)
T35 sequence (Q9UHD2 whole entry): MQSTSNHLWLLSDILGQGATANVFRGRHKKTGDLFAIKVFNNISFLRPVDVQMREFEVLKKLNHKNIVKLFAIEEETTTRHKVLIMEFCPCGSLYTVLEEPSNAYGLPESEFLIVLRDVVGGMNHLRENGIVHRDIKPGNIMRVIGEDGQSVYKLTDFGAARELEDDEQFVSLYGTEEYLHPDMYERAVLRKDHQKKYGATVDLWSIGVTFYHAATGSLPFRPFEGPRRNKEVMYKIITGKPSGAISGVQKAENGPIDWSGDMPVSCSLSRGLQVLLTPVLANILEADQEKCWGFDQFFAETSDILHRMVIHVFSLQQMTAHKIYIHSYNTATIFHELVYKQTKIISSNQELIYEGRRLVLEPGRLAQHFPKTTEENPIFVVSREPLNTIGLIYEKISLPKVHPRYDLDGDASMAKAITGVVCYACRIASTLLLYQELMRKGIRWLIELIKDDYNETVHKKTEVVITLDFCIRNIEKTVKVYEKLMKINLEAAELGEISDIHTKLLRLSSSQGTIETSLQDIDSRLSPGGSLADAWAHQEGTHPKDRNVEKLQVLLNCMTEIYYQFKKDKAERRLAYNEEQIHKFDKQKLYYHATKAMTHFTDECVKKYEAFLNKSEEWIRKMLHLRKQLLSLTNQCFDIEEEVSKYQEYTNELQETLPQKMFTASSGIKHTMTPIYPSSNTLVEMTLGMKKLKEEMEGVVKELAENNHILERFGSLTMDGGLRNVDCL
Description: as §1

[36] = target: T36, CK1gamma2 (Homo sapiens, UniProt P78368)
T36 construct: purchased Millipore, Inc. (KinaseProfiler service)
Description: as §1

[37] = target: T37, PRKG1beta (Homo sapiens, UniProt Q13976)
T37 construct: purchased Millipore, Inc. (KinaseProfiler service)
Description: as §1

[38] = target: T38, Haspin (Homo sapiens, UniProt Q8TF76)
T38 construct: purchased Millipore, Inc. (KinaseProfiler service)
Description: as §1

[39] = target: T39, PKCbetaI (Homo sapiens, UniProt P05771)
T39 construct: purchased Millipore, Inc. (KinaseProfiler service)
Description: as §1

[40] = target: T40, AURKA (Homo sapiens, UniProt O14965)
T40 construct: purchased Millipore (KinaseProfiler service)
Description: as §1

[41] = target: T41, CHK2 (Homo sapiens, UniProt O96017)
T41 construct: purchased Millipore, Inc. (KinaseProfiler service)
T41 sequence (O96017 whole entry): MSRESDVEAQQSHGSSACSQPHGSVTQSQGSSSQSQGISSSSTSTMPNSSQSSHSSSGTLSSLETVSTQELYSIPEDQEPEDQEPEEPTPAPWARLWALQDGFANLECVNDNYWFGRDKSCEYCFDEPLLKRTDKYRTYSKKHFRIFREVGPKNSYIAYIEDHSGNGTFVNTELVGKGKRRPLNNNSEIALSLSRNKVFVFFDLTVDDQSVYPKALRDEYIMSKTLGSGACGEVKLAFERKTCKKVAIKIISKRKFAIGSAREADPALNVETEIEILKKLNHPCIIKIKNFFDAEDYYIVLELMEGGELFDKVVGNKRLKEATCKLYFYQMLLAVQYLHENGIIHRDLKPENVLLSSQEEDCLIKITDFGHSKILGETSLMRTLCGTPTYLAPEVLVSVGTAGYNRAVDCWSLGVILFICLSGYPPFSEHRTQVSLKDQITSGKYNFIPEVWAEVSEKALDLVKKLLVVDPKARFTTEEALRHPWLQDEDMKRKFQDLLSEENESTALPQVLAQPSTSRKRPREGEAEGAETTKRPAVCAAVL
Description: as §1

COCCCc1cc(Cl)c(Cl)cc1NC(=O)Nc1c(C)c(-c2cnn(C)c2)nn1-c1ccccc1 [Example 15, 1-(4,5-dichloro-2-(3-methoxypropyl)phenyl)-3-(1′,4-dimethyl-1-phenyl-1H,1′H-[3,4′-bipyrazol]-5-yl)urea]
Avg POC [1]: 103 POC | Avg POC [2]: 95 POC | Avg POC [3]: 118.5 POC | Avg POC [4]: 113 POC | Avg POC [5]: 78.5 POC | Avg POC [6]: 112.5 POC | Avg POC [7]: 91 POC | Avg POC [8]: 120 POC | Avg POC [9]: 101.5 POC | Avg POC [10]: 111.5 POC | Avg POC [11]: 104.5 POC | Avg POC [12]: 108 POC | Avg POC [13]: 90.5 POC | Avg POC [14]: 108.5 POC | Avg POC [15]: 166.5 POC | Avg POC [16]: 112.5 POC | Avg POC [17]: 120.5 POC | Avg POC [18]: 98.5 POC | Avg POC [19]: 132 POC | Avg POC [20]: 121.5 POC | Avg POC [21]: 134 POC | Avg POC [22]: 141.5 POC | Avg POC [23]: 128 POC | Avg POC [24]: 119.5 POC | Avg POC [25]: 101.5 POC | Avg POC [26]: 110 POC | Avg POC [27]: 117 POC | Avg POC [28]: 112.5 POC | Avg POC [29]: 108 POC | Avg POC [30]: 93.5 POC | Avg POC [31]: 94 POC | Avg POC [32]: 102.5 POC | Avg POC [33]: 95 POC | Avg POC [34]: 132 POC | Avg POC [35]: 110 POC | Avg POC [36]: 120 POC | Avg POC [37]: 130 POC | Avg POC [38]: 121.5 POC | Avg POC [39]: 106 POC | Avg POC [40]: 113.5 POC | Avg POC [41]: 130 POC
